Values after ≈ are worked out from the molar mass of the structure shown. Active and inactive are the calls of the source. The rule behind the calls is not given here.
These compounds were tested on Escherichia coli (assay: not given). Details: not given.

Structure (SMILES) | MIC
C=CCOc1cc(OCc2cc(Cl)ccc2Cl)ccc1C(=O)NO | inactive
O=C(NO)c1ccc2ccccc2c1OCc1cccc(Cl)c1 | inactive
O=C(NO)c1ccccc1OCc1ccc(Cl)c(Cl)c1 | inactive
C=CCOc1c(OCc2ccccc2)cccc1C(=O)NO | inactive
O=C(NO)c1ccccc1OCc1cccc(Cl)c1 | inactive
C=CCOc1cccc(C(=O)NO)c1OCC=C | inactive

These compounds were tested on Escherichia coli (assay: microbe, parasite or virus in culture). Details: GR501, 20 h.
Assay type: functional

Structure (SMILES) | MIC [µg/mL]
O=C(NO)c1ccc2ccccc2c1OCc1ccc(Cl)c(Cl)c1 | > 200
C=CCOc1ccccc1C(=O)NO | 10 (≈ 51.8 µM)
C=CCOc1ccc(OCc2cc(Cl)ccc2Cl)cc1C(=O)NO | 400 (≈ 1090 µM)
C=CCOc1ccc(OCc2ccc(Br)cc2)cc1C(=O)NO | 800 (≈ 2120 µM)
CCCCCCOc1c(C(=O)NO)ccc2ccccc12 | > 200
C=CCOc1ccc(C(=O)NO)c(OCC=C)c1 | 400 (≈ 1600 µM)
C=CCOc1cc(OCc2ccc(Br)cc2)ccc1C(=O)NO | 800 (≈ 2120 µM)
O=C(NO)c1ccccc1OCC(O)Cn1cc(-c2ccccc2)nn1 (centres undefined) | 18 (≈ 50.8 µM)
C=CCOc1ccc(OCC=C)c(C(=O)NO)c1 | 150 (≈ 602 µM)
C=CCOc1ccc(OCc2ccccc2)cc1C(=O)NO | 800 (≈ 2670 µM)
C#CCOc1ccc(OCC=C)c(C(=O)NO)c1 | 400 (≈ 1620 µM)

Tested on: Escherichia coli
Experiment: microbe, parasite or virus in culture
Assay type: functional
Details: GR501, 20 h
Remark: another data set of the same source

Structure (SMILES) | MIC [µg/mL]
C=CCOc1ccccc1C(=O)NO | 0.5 (≈ 2.59 µM)
O=C(NO)c1ccccc1OCC(O)Cn1cc(-c2ccccc2)nn1 (centres undefined) | 1 (≈ 2.82 µM)

Reference: ChEMBL document CHEMBL3217442, “Synthesis and bioevaluation of aryl hydroxamates distinguishing between NAD+ and ATP-dependent DNA ligases” (Medchemcomm, 2012)
